The target of assay [1] is T1, human recombinant GST cleaved CSNK1D (Homo sapiens, UniProt P48730).
T1 construct: GST (cleaved yes); purchased University of Dundee clone DU 19064
The experiment in a line: Purified Enzyme Assay (ADP-Glo CSNK1D Kinase Assay). It counts as biochemical. Particulars: 2 nM CSNK1D; peptide substrate 150 μM; ATP 20 μM; 45 minutes at room temperature. Put shortly: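 GST-cleaved human recombinant CSNK1D phosphorylates peptide PLSRTL-pS-VASLPGL with ATP; compounds added in dose-response, 45 min at room temperature. ADP formed measured by ADP-Glo luminescence and converted to percent activity.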

For the next assay, the target named is T2, human CSNK1D (Homo sapiens, UniProt P48730).
T2 construct: expressed in transfected cells
T2 sequence (P48730 whole entry): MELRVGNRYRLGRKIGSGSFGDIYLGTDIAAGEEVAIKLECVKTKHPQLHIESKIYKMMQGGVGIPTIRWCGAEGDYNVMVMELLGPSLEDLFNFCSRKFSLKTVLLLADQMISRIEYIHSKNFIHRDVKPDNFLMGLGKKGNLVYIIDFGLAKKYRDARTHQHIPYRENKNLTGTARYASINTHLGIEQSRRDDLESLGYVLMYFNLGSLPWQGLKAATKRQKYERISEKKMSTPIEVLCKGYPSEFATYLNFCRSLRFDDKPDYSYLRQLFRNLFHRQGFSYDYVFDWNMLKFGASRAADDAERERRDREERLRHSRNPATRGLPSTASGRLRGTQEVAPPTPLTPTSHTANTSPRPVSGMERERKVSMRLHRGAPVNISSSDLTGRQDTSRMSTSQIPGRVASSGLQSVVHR
Put plainly: Whole Cell nBRET CSNK1D Binding Assay. The conditions noted are these: living CHO cells stably expressing human CSNK1D tagged with nanoluciferase; NanoBret tracer 130 nM; 2 hours at 37 C.

T1 sequence (P48730 whole entry): as above

One may read the IC50 as the concentration at which inhibition is half-maximal. For `Fc1ccc(-c2nn3c(c2-c2ccnc4[nH]ncc24)OCC2(COC2)C3)cc1` [Example 210, 2-(4-Fluorophenyl)-3-(1H-pyrazolo[3,4-b]pyridin-4-yl)spiro[5,7-dihydropyrazolo[5,1-b][1,3]oxazine-6,3′-oxetane]], the IC50 in assay [1] was < 0.5 nM; on human CSNK1D, 23 nM.

In the case of `CC1(C)COCc2c(-c3ccnc4[nH]ncc34)c(-c3ccc(F)cn3)nn21` [Example 122, 2-(5-Fluoro-2-pyridyl)-7,7-dimethyl-3-(1H-pyrazolo[3,4-b]pyridin-4-yl)-4,6-dihydropyrazolo[5,1-c][1,4]oxazine], the IC50 in assay [1] worked out at 120 nM; at human CSNK1D, 3410 nM.

On to `Cc1cc(-c2c(-c3ccc(F)cn3)nn3c2CC[C@H]3C)c2cn[nH]c2n1` [Example 21, 4-[(6R)-2-(5-Fluoro-2-pyridyl)-6-methyl-5,6-dihydro-4H-pyrrolo[1,2-b]pyrazol-3-yl]-6-methyl-1H-pyrazolo[3,4-b]pyridine], for which the figures for the IC50 (in assay [1]; on human CSNK1D) were 14 nM and 353 nM, respectively.

For the molecule `CC1(C)COc2c(-c3ccnc4[nH]ncc34)c(-c3ccc(F)cc3)nn2C1` [Example 212, 2-(4-Fluorophenyl)-6,6-dimethyl-3-(1H-pyrazolo[3,4-b]pyridin-4-yl)-6,7-dihydro-5H-pyrazolo[5,1-b][1,3]oxazine], the IC50 in assay [1] was < 0.5 nM; at human CSNK1D it was 1 nM.

As to `CC1(C)Cn2nc(-c3ccc(F)cn3)c(-c3c(F)cnc4[nH]ncc34)c2CO1` [Example 389, 3-(5-Fluoro-1H-pyrazolo[3,4-b]pyridin-4-yl)-2-(5-fluoropyridin-2-yl)-6,6-dimethyl-6,7-dihydro-4H-pyrazolo[5,1-c][1,4]oxazine], the IC50 in assay [1] was found to be 5 nM; at human CSNK1D it was 94 nM.

Consider `CCC(=O)Nc1cc(-c2c(-c3ccc(F)cc3)nn3c2OCC2(CC2)C3)ccn1` [Example 455, N-(4-(2′-(4-Fluorophenyl)-5′H,7′H-spiro[cyclopropane-1,6′-pyrazolo[5,1-b][1,3]oxazin]-3′-yl)pyridin-2-yl)propionamide], for which the IC50 (in assay [1]; on human CSNK1D) was 1 nM each time.

Turning to `Fc1ccc(-c2nn3c(c2-c2ccnc4[nH]ncc24)C[C@@H](F)C3)cc1` [Example 228, 4-[(5R)-5-Fluoro-2-(4-fluorophenyl)-5,6-dihydro-4H-pyrrolo[1,2-b]pyrazol-3-yl]-1H-pyrazolo[3,4-b]pyridine], the IC50 came out at 7 nM in assay [1] and 79 nM at human CSNK1D.

On to `[2H]C([2H])([2H])[C@@]1(C(F)(F)F)Cn2nc(-c3ccc(F)cn3)c(-c3cc(C)nc4[nH]nc(C)c34)c2CO1` (single isomer, unassigned) [Example 429, (*S)-3-(3,6-Dimethyl-1H-pyrazolo[3,4-b]pyridin-4-yl)-2-(5-fluoropyridin-2-yl)-6-(methyl-d3)-6-(trifluoromethyl)-6,7-dihydro-4H-pyrazolo[5,1-c][1,4]oxazine], for which the IC50 in assay [1] is 133 nM; at human CSNK1D it was 2230 nM.

For the molecule `C[C@H]1CCCc2c(-c3ccnc4[nH]ncc34)c(-c3ccc(F)cc3)nn21` (single isomer, unassigned) [Example 40, (*S)-4-[2-(4-Fluorophenyl)-7-methyl-4,5,6,7-tetrahydropyrazolo[1,5-a]pyridin-3-yl]-1H-pyrazolo[3,4-b]pyridine], the IC50 in assay [1] was 4 nM; on human CSNK1D it was 41 nM.

Consider `Cc1nc2[nH]ncc2c(-c2c(-c3ccc(F)cn3)nn3c2CO[C@](C)(C(F)(F)F)C3)c1F` (single isomer, unassigned) [Example 421, (*S)-3-(5-Fluoro-6-methyl-1H-pyrazolo[3,4-b]pyridin-4-yl)-2-(5-fluoropyridin-2-yl)-6-methyl-6-(trifluoromethyl)-6,7-dihydro-4H-pyrazolo[5,1-c][1,4]oxazine], for which the IC50 is 36 nM in assay [1] and 682 nM on human CSNK1D.

Consider `Cc1cc(-c2c(-c3ccc(F)cn3)nn3c2OC(C)(C)C3)c2cn[nH]c2n1` [Example 368, 6-(5-Fluoro-2-pyridyl)-2,2-dimethyl-7-(6-methyl-1H-pyrazolo[3,4-b]pyridin-4-yl)-3H-pyrazolo[5,1-b]oxazole], for which the IC50 is 7 nM in assay [1] and 55 nM at human CSNK1D.

In the case of `Fc1ccc(-c2nn3c(c2-c2ccnc4[nH]ncc24)[C@H]2CC[C@@H]3C2)nc1` (single isomer, unassigned) [Example 63, (4*S,7*R)-2-(5-Fluoropyridin-2-yl)-3-(1H-pyrazolo[3,4-b]pyridin-4-yl)-4,5,6,7-tetrahydro-4,7-methanopyrazolo[1,5-a]pyridine], the IC50 came out at 12 nM in assay [1] and 320 nM at human CSNK1D.

As to `[2H]C([2H])([2H])C1(C([2H])([2H])[2H])Cn2nc(-c3ccc(F)cn3)c(-c3c(F)cnc4[nH]ncc34)c2CO1` [Example 399, 3-(5-Fluoro-1H-pyrazolo[3,4-b]pyridin-4-yl)-2-(5-fluoropyridin-2-yl)-6,6-bis(methyl-d3)-6,7-dihydro-4H-pyrazolo[5,1-c][1,4]oxazine], the IC50 turned out to be 5 nM in assay [1] and 95 nM at human CSNK1D.

Take `Fc1ccc(-c2nn3c(c2-c2c(F)cnc4[nH]ncc24)CC[C@@H]2C[C@@H]23)nc1` (single isomer, unassigned) [Example 343, (5a*R,6a*S)-3-(5-Fluoro-1H-pyrazolo[3,4-b]pyridin-4-yl)-2-(5-fluoropyridin-2-yl)-5,5a,6,6a-tetrahydro-4H-cyclopropa[e]pyrazolo[1,5-a]pyridine]: the values for the IC50 (in assay [1]; at human CSNK1D) were 5 nM and 96 nM, respectively.

In the case of `Fc1ccc(-c2nn3c(c2-c2ccnc4[nH]ncc24)OCC(F)(F)C3)cc1` [Example 467, 6,6-Difluoro-2-(4-fluorophenyl)-3-(1H-pyrazolo[3,4-b]pyridin-4-yl)-5,7-dihydropyrazolo[5,1-b][1,3]oxazine], the concentration for half-maximal inhibition (IC50) in assay [1] stood at 2 nM; at human CSNK1D, 21 nM.

Regarding `Cc1cc(-c2c(-c3ccc(F)cn3)nn3c2C[C@@H]2C[C@@H]23)c2cn[nH]c2n1` [Example 28, (4aS,5aS)-2-(5-Fluoropyridin-2-yl)-3-(6-methyl-1H-pyrazolo[3,4-b]pyridin-4-yl)-4,4a,5,5a-tetrahydrocyclopropa[4,5]pyrrolo[1,2-b]pyrazole], the IC50 in assay [1] was 2 nM; on human CSNK1D, 19 nM.

Consider `CCn1ncc2cc(-c3c(-c4ccc(F)cn4)nn4c3COC(C)(C)C4)cnc21` [Example 141, 3-(1-Ethyl-1H-pyrazolo[3,4-b]pyridin-5-yl)-2-(5-fluoropyridin-2-yl)-6,6-dimethyl-6,7-dihydro-4H-pyrazolo[5,1-c][1,4]oxazine], for which the IC50 in assay [1] worked out at 344 nM; on human CSNK1D it was 5690 nM.

With `Fc1ccc(-c2nn3c(c2-c2ccnc4[nH]ncc24)CO[C@H](C2CCC2)C3)nc1` (single isomer, unassigned) [Example 110, (*R)-6-Cyclobutyl-2-(5-fluoropyridin-2-yl)-3-(1H-pyrazolo[3,4-b]pyridin-4-yl)-6,7-dihydro-4H-pyrazolo[5,1-c][1,4]oxazine], the IC50 in assay [1] was 49 nM; at human CSNK1D it was 1170 nM.

`Cc1cc(-c2c(-c3ccc(F)cc3)nn3c2OC[C@@H](C)C3)c2cn[nH]c2n1` (single isomer, unassigned) [Example 193, (*S)-2-(4-Fluorophenyl)-6-methyl-3-(6-methyl-1H-pyrazolo[3,4-b]pyridin-4-yl)-6,7-dihydro-5H-pyrazolo[5,1-b][1,3]oxazine]: the values for the IC50 (in assay [1]; at human CSNK1D) were < 0.5 nM and 5 nM, respectively.

Values taken from patent publication US20230339970A1, “CASEIN KINASE 1 DELTA MODULATORS” (priority 2020, published 2023).
